By melting point is commonly meant the temperature, or range, at which the solid turns liquid.

In turn, `CCC(C)c1ccc(-n2c(S)nc3cc(Cl)ccc3c2=O)cc1` (stereo unspecified) yielded a melting point of 242 to 244 °C.

As to `Cc1nc(S)sc1CC(=O)O`, the melting point lay in the range of 205 to 207 °C.

Molecule `CCOC(=O)c1[nH]c(C)c(C(=O)CCl)c1C` showed a melting point of 159 to 161 °C.

With `NS(=O)(=O)c1cnn(Cc2ccccc2)c1`, the melting point was 157 to 159 °C.

The molecule `CCN(CC)c1ccc(S(=O)(=O)N2CCOCC2)cc1N` registered a melting point of 99 to 101 °C.

`CSc1ccc(-c2csc(N)n2)cc1` had a melting point of 219 to 221 °C.

Turning to `Clc1cc(NC2CCOc3ccccc32)ncn1` (stereo unspecified), the melting point was in the range of 129 to 131 °C.

In turn, `Nc1ccc(Cl)c(S(=O)(=O)N2CCCC2)c1` returned a melting point of 116 to 118 °C.

The molecule `Nc1ccc(-n2cnnn2)cc1` came in with a melting point of 140 to 142 °C.

For `Nc1ccc(Oc2cccc(F)c2)cc1`, the melting point lay in the range of 72 to 74 °C.

As for `Cc1c(N)cccc1C#N`, the melting point fell in the range of 90 to 92 °C.

Turning to `Nc1ccc2nc(-n3ccnc3)sc2c1`, the melting point fell in the range of 202 to 204 °C.

In turn, `O=C(O)Cc1ccc2c(c1)CCC2` displayed a melting point of 86 to 90 °C.

In turn, `CCCN1CCCC(C(=O)O)C1` (stereo unspecified) showed a melting point of 137 to 139 °C.

On to `Nc1ncn(-c2ccncc2)n1`, for which the melting point was 213 to 215 °C.

Regarding `N#CCCn1cc(C(=O)O)c(-c2cccc3ccccc23)n1`, the melting point lay within 179 to 181 °C.

`O=S(=O)(Cl)C=Cc1ccc(F)cc1` had a melting point of 110 to 112 °C.

The molecule `COc1cc(C=O)ccc1OCc1csc(C)n1` came in with a melting point of 86 to 88 °C.

In the case of `O=C(O)C1CC(=O)N(CCOc2ccccc2Cl)C1` (stereo unspecified), the melting point is 138 to 140 °C.

`O=C(O)c1cnn(-c2ccc(Cl)cc2Cl)c1`: the melting point lay in the range of 246 to 248 °C.

Molecule `OCc1cc(-c2ccccc2)[nH]n1` showed a melting point of 144 to 146 °C.

Molecule `CCOc1cc(C(=O)O)c([N+](=O)[O-])cc1OC` displayed a melting point of 213 to 215 °C.

`Nc1nnc(C2CC2)o1` registered a melting point of 170 to 172 °C.

`Sc1nnc(-c2ccc3ccccc3c2)o1` gave a melting point of 226 to 228 °C.

The molecule `Cc1ccccc1-n1c(Cl)nc2ccccc2c1=O` displayed a melting point of 298 to 300 °C.

In the case of `Cc1cccc(C(=O)NC(C)C(=O)O)c1` (stereo unspecified), the melting point lay within 117 to 119 °C.

In the case of `CCc1ccc(C(=O)CCl)cc1`, the melting point lay in the range of 41 to 43 °C.

Molecule `Nc1c(Br)c(=O)[nH]c(=O)n1Cc1ccccc1` displayed a melting point of 235 to 237 °C.

With `CN1CCC(CC(=O)O)CC1`, the melting point was in the range of 150 to 152 °C.

In turn, `N#Cc1cnc2c(F)ccc(F)c2c1Cl` yielded a melting point of 172 to 174 °C.

For the molecule `Cc1cc(N)n(-c2nc3ccccc3o2)n1`, the melting point lay in the range of 221 to 223 °C.

For the molecule `NNC(=O)c1c[nH]c2ccccc12`, the melting point was 229 to 231 °C.

Molecule `Nc1ccc(N2CCc3sccc3C2)cc1` registered a melting point of 61 to 63 °C.

`O=C(O)c1cccc2c3c([nH]c12)CCCC3` gave a melting point of 190 to 192 °C.

In the case of `Ic1ccc(OCc2cccnc2)cc1`, the melting point is 72 to 74 °C.

For the molecule `CC(C)c1c(C(=O)O)cnn1Cc1ccccc1`, the melting point fell in the range of 153 to 155 °C.

As for `O=C(Nc1ccc(Br)cn1)C1CCCNC1` (stereo unspecified), the melting point is 169 to 171 °C.

Molecule `Nc1cc(Br)ccc1-n1cccn1` yielded a melting point of 69 to 71 °C.

For `C/C=C/c1cc(C(=O)O)cc(OC)c1OC`, the melting point fell in the range of 142 to 144 °C.

As for `O=C(O)CCCCNC(=O)c1ccc2[nH]nnc2c1`, the melting point is 189 to 191 °C.

The molecule `Nc1cc(C(=O)O)ccc1Br` came in with a melting point of 226 to 230 °C.

For `O=C(O)C=Cc1cc(Cl)ccc1OCc1ccc(Cl)cc1`, the melting point was 162 to 164 °C.

In the case of `Cc1c(C(=O)O)nnn1-c1ccc2ncccc2c1`, the melting point was in the range of 219 to 221 °C.

Regarding `OCc1coc(-c2ccccc2)n1`, the melting point was 79 to 81 °C.

As for `Nc1ccc(NC(=O)c2ccc(F)cc2)cc1C(F)(F)F`, the melting point was in the range of 120 to 122 °C.

`Cc1nc(C(N)=O)c(N)n1C` showed a melting point of 159 to 161 °C.

`Nc1nc2ccc(S(N)(=O)=O)cc2s1` came in with a melting point of 259 to 261 °C.

`O=C(O)CCN1CCCC1=O` displayed a melting point of 109 to 111 °C.

For the molecule `Cc1ccccc1-c1cc(N)n(C)n1`, the melting point lay within 97 to 99 °C.

`Cc1cc(Cl)c(C#N)c(C)n1` registered a melting point of 65 to 67 °C.

Take `Oc1ccc(Br)cc1-c1nn[nH]n1`: the melting point fell in the range of 188 to 190 °C.

Consider `CCOC(=O)c1c(Cl)c2ncc(S(=O)(=O)Cl)cc2n1C`, for which the melting point was in the range of 141 to 143 °C.

Molecule `CC(=O)c1cc([N+](=O)[O-])c(Cl)s1` gave a melting point of 74 to 76 °C.

The molecule `CC(N)c1ccc(NS(C)(=O)=O)cc1` (stereo unspecified) registered a melting point of 142 to 144 °C.

Molecule `O=[N+]([O-])c1ccc(CBr)c(F)c1` gave a melting point of 59 to 61 °C.

In turn, `CC(C)(C)Sc1ccc(N)cc1` showed a melting point of 67 to 69 °C.

For `CC(C)(N)CNC(=O)OC(C)(C)C`, the melting point fell in the range of 68 to 70 °C.

On to `Cc1cc(C(=O)CCl)c(C)n1-c1ncn[nH]1`, for which the melting point is 180 to 182 °C.

`O=c1c2ccccc2oc2ccc([N+](=O)[O-])cc12`: the melting point was 203 to 205 °C.

The molecule `Cn1cccc(C(=O)O)c1=O` showed a melting point of 185 to 187 °C.

Molecule `CN(C)S(=O)(=O)c1ccc(Cl)c(N)c1` showed a melting point of 119 to 121 °C.

Turning to `COc1cc(C=O)cc(Cl)c1O`, the melting point fell in the range of 162 to 166 °C.

For the molecule `C/C(=C\C(=O)O)C12CC3CC(CC(C3)C1)C2`, the melting point lay within 169 to 171 °C.

In turn, `NCc1nnc2ccccn12` came in with a melting point of 131 to 133 °C.

`N#CCC(=O)Nc1ccccn1`: the melting point lay within 160 to 162 °C.

The molecule `CC(C)(C)OC(=O)N1C2CCC1CC(O)C2` (stereo unspecified) registered a melting point of 140 to 142 °C.

`CN(C)CCOc1cc(N)ccn1`: the melting point fell in the range of 87 to 89 °C.

`O=S(=O)(Cl)c1c(Cl)cccc1C(F)(F)F` displayed a melting point of 36 to 38 °C.

In turn, `CC(C)NS(=O)(=O)c1ccccc1C(=O)O` gave a melting point of 111 to 113 °C.

`COc1ccc2c(CC(=O)O)cc(=O)oc2c1` registered a melting point of 183 to 187 °C.

In turn, `Cc1cc(C(=O)O)cc(C)c1OC(F)F` displayed a melting point of 189 to 191 °C.

In turn, `Cc1oc(C(=O)O)cc1C(=O)CCl` gave a melting point of 206 to 208 °C.

`Cc1ccc([N+](=O)[O-])cc1NC(=O)CCCl` came in with a melting point of 155 to 157 °C.

In turn, `CCOC(=O)c1cc(C)nc2onc(C)c12` returned a melting point of 64 to 66 °C.

Molecule `CCCc1cc(=O)[nH]c(-c2ccccc2)n1` gave a melting point of 149 to 151 °C.

Molecule `COC(C#N)c1ccc([N+](=O)[O-])cc1` (stereo unspecified) yielded a melting point of 42 to 44 °C.

The molecule `O=C(O)c1ccc(NS(=O)(=O)c2cc(Cl)sc2Cl)cc1` had a melting point of 189 to 191 °C.

In turn, `Nc1ccc(SCc2cccnc2)cc1` registered a melting point of 125 to 127 °C.

`CCOc1c(Br)cc(C=O)cc1OC` registered a melting point of 84 to 86 °C.

Molecule `CCn1c(S)nnc1C1CC1` registered a melting point of under 17 °C.

`NS(=O)(=O)C1CCCNC1` (stereo unspecified) showed a melting point of 119 to 121 °C.

`O=C(Nc1cccc(Br)c1)C1CCNCC1` showed a melting point of 178 to 180 °C.

The molecule `NS(=O)(=O)c1ccc(CN=C=S)cc1` gave a melting point of 159 to 161 °C.

In the case of `BrCCC12CC3CC(CC(C3)C1)C2`, the melting point is 56 to 58 °C.

Molecule `Cc1ccc(Oc2ccc(Cl)cc2NC(=O)CCl)cc1` displayed a melting point of 87 to 89 °C.

`COCCNS(=O)(=O)c1ccc(C)c(C(=O)O)c1` yielded a melting point of 137 to 139 °C.

The molecule `CCCCCCCCCCCCSc1nc2sc3c(c2c(=O)n1-c1ccccc1)CCCC3` showed a melting point of 84 to 86 °C.

In turn, `O=C(O)c1csc(-c2ccc(F)cc2)n1` yielded a melting point of 196 to 198 °C.

The molecule `COc1ccc2nc(C)nc(Cl)c2c1` yielded a melting point of 119 to 121 °C.

`COc1ccc(C(=O)CCl)cc1F` came in with a melting point of 88 to 92 °C.

In turn, `O=C1CCc2c(Cl)cc(Cl)cc21` yielded a melting point of 109 to 111 °C.

Molecule `CC(CC(=O)O)c1ccc(F)cc1` (stereo unspecified) registered a melting point of 64 to 66 °C.

For the molecule `Cn1cc(-c2nc3ccccn3c2N)cn1`, the melting point lay in the range of 149 to 151 °C.

Turning to `O=C(O)c1nccnc1-c1nc2ccccc2s1`, the melting point was 188 to 190 °C.

On to `Cc1ccnc(Br)c1N`, for which the melting point lay within 76 to 78 °C.

`CNC(=O)COc1cccc(CC(=O)O)c1` gave a melting point of 128 to 130 °C.

The molecule `Cc1cccc(C)c1OCC(=O)O` gave a melting point of 138 to 140 °C.

On to `Cc1ccc(-n2ncc(Cl)c(Cl)c2=O)cc1Cl`, for which the melting point lay within 206 to 208 °C.

With `CCc1nc(C(=O)O)nn1-c1ccccc1`, the melting point lay in the range of 145 to 147 °C.

Consider `c1cc(-c2nc3cc4c(cc3[nH]2)OCCO4)cs1`, for which the melting point lay in the range of 279 to 281 °C.

The molecule `CCC1(c2ccc(F)cc2)NC(=O)NC1=O` (stereo unspecified) yielded a melting point of 95 to 97 °C.

Molecule `O=S(=O)(Cl)c1cccc(-c2cccs2)c1` gave a melting point of 57 to 59 °C.

Take `Nc1cc(N)c(F)cc1F`: the melting point fell in the range of 111 to 113 °C.

`O=c1[nH]c2ccccc2c(O)c1[N+](=O)[O-]` registered a melting point of 209 to 211 °C.

Consider `ClC(Cl)c1nnc(-c2ccccc2)o1`, for which the melting point was 82 to 84 °C.

Turning to `Fc1ccc(-n2c(S)nnc2-c2ccncc2)cc1`, the melting point fell in the range of 165 to 175 °C.

Take `COc1ccnc(CO)c1`: the melting point fell in the range of 70 to 72 °C.

As to `N#Cc1cnc(N)cn1`, the melting point was 186 to 188 °C.

In turn, `Cc1ccc(-c2cc(CS(=O)(=O)Cl)on2)cc1` returned a melting point of 119 to 121 °C.

As for `CCn1c(N)nc2cc(C#N)ccc21`, the melting point was in the range of 189 to 191 °C.

Molecule `O=Cc1cc(F)cc2cccnc12` displayed a melting point of 114 to 116 °C.

`Cc1nnc(CCl)s1` registered a melting point of 76 to 78 °C.

Turning to `N#Cc1ccc(Cl)cc1S(=O)(=O)Cl`, the melting point is 79 to 81 °C.

`COCCCOc1cc(C)ccc1C#N` had a melting point of 67 to 69 °C.

The molecule `CC(=O)Nc1ccc(S(=O)(=O)NC(C)C(=O)O)cc1` (stereo unspecified) registered a melting point of 178 to 180 °C.

Molecule `O=c1[nH]cnc2c1CCNC2` yielded a melting point of 251 to 253 °C.

With `COc1ccc2c(c1)C1(CC2)NC(=O)NC1=O` (stereo unspecified), the melting point is 189 to 191 °C.

Turning to `O=C(O)c1cc2c(cc1O)CCCC2`, the melting point fell in the range of 170 to 172 °C.

On to `NS(=O)(=O)c1ccc(S(=O)(=O)Cl)c(F)c1`, for which the melting point is 111 to 113 °C.

`O=C(O)CCN1C(=O)c2ccc(Br)cc2C1=O`: the melting point was 209 to 211 °C.

`O=C(O)C1CCN(S(=O)(=O)c2ccccc2)CC1`: the melting point lay within 156 to 158 °C.

For the origin of these results see a melting point compilation (Tetko et al.).
